Patent US11293023B2, “Tunable endogenous protein degradation” (Dana-Farber Cancer Institute, Inc., priority 2015, dated 2022)

Key:
Type in all cases: cell-based
[1] = target: T1, FKBP12WT (Homo sapiens, UniProt P62942); assay: Immunoblot of wild type FKBP12 in 293FT cells (selectivity control); conditions: 293FT CRBN-WT or CRBN−/−, indicated concentrations, 4 hours
T1 construct: expressed in transfected cells; host or cells: 293FT cells (CRBN-WT or CRBN-/-)
Description: 293FT cells (CRBN-WT or CRBN−/−) expressing either HA-tagged FKBP12WT or FKBP* were treated with indicated concentrations of dFKBP7 for 4 hours.
Isogenic 293FT cells (CRBN-WT or CRBN−/−) expressing either FKBP12WT or FKBP* were treated with 100 nM of either dFKBP7 or dFKBP13 for 4 hours.
The dTAG is predicated on the selectivity of FKBP* specific ligands over endogenous, wild type FKBP. […] 293FT cells (CRBN-WT or CRBN−/−) expressing either HA-tagged FKBP12WT or FKBP* were treated with indicated concentrations of dFKBP7 for 4 hours.
Isogenic 293FT cells (CRBN-WT or CRBN−/−) were engineered to expressed either FKBP12WT or FKBP*. Cells were treated with 100 nM of either dFKBP7 or dFKBP13 for 4 hours before lysates were prepared for western immunoblot analysis.

[2] = target: T2, FKBP* fused to Nluc (Homo sapiens, UniProt P62942+Q96SW2, F37V); assay: Nluc/Fluc luciferase signal ratio assay of FKBP* degradation in 293FT cells; conditions: wild type or CRBN−/− 293FT cells, indicated concentrations, 4 hours
T2 construct: expressed in transfected cells; host or cells: 293FT cells (wild type or CRBN-/-)
Description: FIG. 5A and FIG. 5B are graphs measuring the activity of a panel of dFKBP heterobifunctional compounds in cells expressing FKBP* fused to Nluc. Degradation of FKBP* is measured as a signal ration (Nluc/Fluc) between NANOluc and firefly luciferase from the same multicistronic transcript in wild type (FIG. 7A) or CRBN−/− ([…]) 293FT cells treated with indicated concentrations of dFKBPs for 4 hours. A decrease in the signal ratio indicates FKBP* (Nluc) degradation.
In an effort to identify potent and selective dFKPB heterobifunctional compounds, high throughput measurements of targeted FKBP* degradation were measured by surrogate levels of luciferase. Here, FKBP* is exogenously expressed as a multicistronic transcript with two types of luciferase: nano luciferase (NLuc) and firefly luciferase (FLuc) that allow for cell normalized quantification of FKBP* protein levels. Degradation of FKBP* is measured as a signal ration (Nluc/Fluc) in wild type (FIG. 4A) or CRBN−/− (FIG. 4B) 293FT cells treated with indicated concentrations of dFKBPs for 4 hours.

[3] = tested on: dTAG-KRAS alleles (WT, G12C, G12D, G12V, G13D, Q61L, Q61R); assay: Immunoblot of dTAG-KRAS WT and mutant alleles in NIH3T3 cells; conditions: 1 uM, 24 hours
Description: FIG. 16 is an immunoblot of NIH3T3 cells expressing KRAS alleles either WT or mutant forms of amino acid glycine 12 (G12C, G12D, and G12V) treated with 1 uM of dFKBP13 for 24 hours.
FIG. 17 is an immunoblot of NIH3T3 cells expressing either WT or mutant KRAS alleles (G13D, Q61L, and Q61R) treated with 1 uM of dFKBP13 for 24 hours.
(§1) The dFKBP13 heterobifunctional compound potently degrades dTAG-KRAS mutant alleles. NIH3T3 cells were engineered to express KRAS alleles either WT or mutant forms of amino acid glycine 12 (G12C, G12D, and G12V). Western blotting of NIH3T3 cells expressing dTAG fused to the N-terminus of KRAS alleles were treated with 1 uM of dFKBP13 for 24 hours. Cells were harvested and immunoblotted to measure degradation of dTAG-KRAS and downstream surrogates of KRAS signaling (e.g. pMEK and pAKT).
as §1, with “express” for “express KRAS alleles”, “KRAS alleles (G13D, Q61L,” for “forms of amino acid glycine 12 (G12C, G12D,”, “Q61R).” for “G12V).”

[4] = tested on: NIH3T3 cells expressing FKBP*-KRASG12V; assay: Phase contrast imaging of NIH3T3 cells expressing dTAG-KRAS; conditions: NIH3T3 overexpressing dTAG-KRAS, 24 hours
Description: FIG. 18A, FIG. 18B, FIG. 18C, and FIG. 18D are panels of phase contrast images of control NIH3T3 cells or NIH3T3 expressing FKBP* fused to the N-terminus of KRASG12V treated with DMSO of dFKBP13 for 24 hours.

T2 sequence (P62942 2-108 F37V limits assumed): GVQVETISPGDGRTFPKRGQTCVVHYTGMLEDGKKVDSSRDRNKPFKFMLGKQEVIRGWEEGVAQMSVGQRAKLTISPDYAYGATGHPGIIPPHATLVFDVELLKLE
T2 sequence (Q96SW2 whole entry, the tested form may be a part): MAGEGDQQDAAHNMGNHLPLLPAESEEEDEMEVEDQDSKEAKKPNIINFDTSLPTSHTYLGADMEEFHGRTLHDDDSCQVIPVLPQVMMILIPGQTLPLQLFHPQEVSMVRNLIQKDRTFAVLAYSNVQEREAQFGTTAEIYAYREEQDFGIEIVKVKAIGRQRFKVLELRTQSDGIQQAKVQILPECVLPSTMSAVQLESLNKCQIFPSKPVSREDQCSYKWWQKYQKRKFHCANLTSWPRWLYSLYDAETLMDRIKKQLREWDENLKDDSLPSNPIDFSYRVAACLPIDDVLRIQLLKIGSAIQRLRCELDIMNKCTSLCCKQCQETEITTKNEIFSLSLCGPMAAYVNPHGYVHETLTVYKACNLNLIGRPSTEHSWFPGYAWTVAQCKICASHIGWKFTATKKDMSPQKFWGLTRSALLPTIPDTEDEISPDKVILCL
T2 sequence (Q16531 whole entry partner, the tested form may be a part): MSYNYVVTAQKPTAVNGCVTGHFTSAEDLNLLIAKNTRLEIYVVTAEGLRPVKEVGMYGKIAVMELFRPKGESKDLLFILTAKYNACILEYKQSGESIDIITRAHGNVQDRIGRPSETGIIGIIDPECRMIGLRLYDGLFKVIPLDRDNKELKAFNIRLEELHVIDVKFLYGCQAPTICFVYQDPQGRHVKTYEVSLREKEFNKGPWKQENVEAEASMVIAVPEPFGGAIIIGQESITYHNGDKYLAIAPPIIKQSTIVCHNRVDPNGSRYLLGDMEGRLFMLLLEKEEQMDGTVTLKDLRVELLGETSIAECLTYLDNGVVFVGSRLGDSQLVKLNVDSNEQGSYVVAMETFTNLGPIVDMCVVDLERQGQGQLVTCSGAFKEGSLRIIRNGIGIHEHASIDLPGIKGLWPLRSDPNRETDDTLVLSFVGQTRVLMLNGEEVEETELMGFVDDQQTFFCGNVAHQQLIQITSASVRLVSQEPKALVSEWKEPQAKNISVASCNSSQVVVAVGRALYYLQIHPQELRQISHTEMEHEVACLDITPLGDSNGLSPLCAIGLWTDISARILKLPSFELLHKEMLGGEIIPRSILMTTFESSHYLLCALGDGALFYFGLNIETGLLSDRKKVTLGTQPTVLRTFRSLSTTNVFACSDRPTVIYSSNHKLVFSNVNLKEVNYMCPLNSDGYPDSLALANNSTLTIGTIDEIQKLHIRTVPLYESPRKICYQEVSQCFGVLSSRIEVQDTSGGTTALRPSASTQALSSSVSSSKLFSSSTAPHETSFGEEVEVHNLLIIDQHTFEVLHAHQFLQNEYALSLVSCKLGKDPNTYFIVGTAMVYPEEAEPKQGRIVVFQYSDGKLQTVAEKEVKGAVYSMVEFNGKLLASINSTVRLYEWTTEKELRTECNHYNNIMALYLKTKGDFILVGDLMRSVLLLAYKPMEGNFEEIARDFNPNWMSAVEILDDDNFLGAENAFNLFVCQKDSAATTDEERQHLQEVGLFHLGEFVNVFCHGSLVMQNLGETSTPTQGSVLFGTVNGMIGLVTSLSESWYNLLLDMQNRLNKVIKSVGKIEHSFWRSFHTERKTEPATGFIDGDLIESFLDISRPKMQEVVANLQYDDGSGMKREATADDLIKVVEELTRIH
T1 sequence (P62942 whole entry): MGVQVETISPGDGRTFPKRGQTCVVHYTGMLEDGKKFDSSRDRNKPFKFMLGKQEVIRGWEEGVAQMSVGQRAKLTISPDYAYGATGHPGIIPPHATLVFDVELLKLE

Row | Compound | degradation of HA-tagged FKBP12WT [1] | FKBP* degradation as signal ratio (Nluc/Fluc) [2] | degradation of dTAG-KRAS alleles ([3]; G12C, G12D, G12V) | degradation of dTAG-KRAS alleles ([3]; G13D, Q61L, Q61R) | cell morphology [4]
1 | CC[C@H](C(=O)N1CCCC[C@H]1C(=O)O[C@H](CCc1ccc(OC)c(OC)c1)c1cccc(OCC(=O)NCCCOCCOCCOCCCNC(=O)COc2cccc3c2C(=O)N(C2CCC(=O)NC2=O)C3=O)c1)c1cc(OC)c(OC)c(OC)c1 (some centres unmarked) [dFKBP7] | not FKBPWT | effectively degrade FKBP* in a cereblon dependent manner |  |  | 
2 | CC[C@H](C(=O)N1CCCC[C@H]1C(=O)O[C@H](CCc1ccc(OC)c(OC)c1)c1cccc(OCC(=O)NCCCCCCOc2cccc3c2C(=O)N(C2CCC(=O)NC2=O)C3=O)c1)c1cc(OC)c(OC)c(OC)c1 (some centres unmarked) [dFKBP13] |  |  | potent degradation of WT and mutant KRAS alleles | potent degradation of WT and mutant KRAS alleles | morphologically revert back to the wild type (DMSO control) state
